# Laboratory results published in the supplement of paper PMC11451515.
# System: NOMO1
# Assay: cell viability relative to DMSO control; higher = less cytotoxic
# Details: 48 h
# Method in brief: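 Before seeding, each leukemia line was adapted for at least four passages in each medium. NOMO1 or SEM cells (500 cells/well) and P12-Ichikawa cells (1000 cells/well) went into 1536-well plates at 5 μl, then received library compounds in DMSO by pin dosing across 11 threefold concentrations, 47 μM to 0.79 nM. Readout was CellTiter-Glo One luminescence after 48 h at 37°C, and viability is given as a per-plate percentage of DMSO wells, with cell-free wells as background.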
# [1] = HPLM + 10% dialyzed FBS, 0.000781 µM
# [2] = HPLM + 10% dialyzed FBS, 0.00234 µM
# [3] = HPLM + 10% dialyzed FBS, 0.00702 µM
# [4] = HPLM + 10% dialyzed FBS, 0.0211 µM
# [5] = HPLM + 10% dialyzed FBS, 0.0632 µM
# [6] = HPLM + 10% dialyzed FBS, 0.19 µM
# [7] = HPLM + 10% dialyzed FBS, 0.569 µM
# [8] = HPLM + 10% dialyzed FBS, 1.71 µM
# [9] = HPLM + 10% dialyzed FBS, 5.12 µM
# [10] = HPLM + 10% dialyzed FBS, 15.4 µM
# [11] = HPLM + 10% dialyzed FBS, 46.1 µM
# [12] = RPMI 5 mM glucose + 10% FBS, 0.000781 µM
# [13] = RPMI 5 mM glucose + 10% FBS, 0.00234 µM
# [14] = RPMI 5 mM glucose + 10% FBS, 0.00702 µM
# [15] = RPMI 5 mM glucose + 10% FBS, 0.0211 µM
# [16] = RPMI 5 mM glucose + 10% FBS, 0.0632 µM
# [17] = RPMI 5 mM glucose + 10% FBS, 0.19 µM
# [18] = RPMI 5 mM glucose + 10% FBS, 0.569 µM
# [19] = RPMI 5 mM glucose + 10% FBS, 1.71 µM
# [20] = RPMI 5 mM glucose + 10% FBS, 5.12 µM
# [21] = RPMI 5 mM glucose + 10% FBS, 15.4 µM
# [22] = RPMI 5 mM glucose + 10% FBS, 46.1 µM
# [23] = RPMI 5 mM glucose + 10% dialyzed FBS, 0.000781 µM
# [24] = RPMI 5 mM glucose + 10% dialyzed FBS, 0.00234 µM
# [25] = RPMI 5 mM glucose + 10% dialyzed FBS, 0.00702 µM
# [26] = RPMI 5 mM glucose + 10% dialyzed FBS, 0.0211 µM
# [27] = RPMI 5 mM glucose + 10% dialyzed FBS, 0.0632 µM
# [28] = RPMI 5 mM glucose + 10% dialyzed FBS, 0.19 µM
# [29] = RPMI 5 mM glucose + 10% dialyzed FBS, 0.569 µM
# [30] = RPMI 5 mM glucose + 10% dialyzed FBS, 1.71 µM
# [31] = RPMI 5 mM glucose + 10% dialyzed FBS, 5.12 µM
# [32] = RPMI 5 mM glucose + 10% dialyzed FBS, 15.4 µM
# [33] = RPMI 5 mM glucose + 10% dialyzed FBS, 46.1 µM
Structure (SMILES),cell viability [1] [%],cell viability [2] [%],cell viability [3] [%],cell viability [4] [%],cell viability [5] [%],cell viability [6] [%],cell viability [7] [%],cell viability [8] [%],cell viability [9] [%],cell viability [10] [%],cell viability [11] [%],cell viability [12] [%],cell viability [13] [%],cell viability [14] [%],cell viability [15] [%],cell viability [16] [%],cell viability [17] [%],cell viability [18] [%],cell viability [19] [%],cell viability [20] [%],cell viability [21] [%],cell viability [22] [%],cell viability [23] [%],cell viability [24] [%],cell viability [25] [%],cell viability [26] [%],cell viability [27] [%],cell viability [28] [%],cell viability [29] [%],cell viability [30] [%],cell viability [31] [%],cell viability [32] [%],cell viability [33] [%]
CNC(=O)[C@H](CC/1=C/N=C\2/C=C\C\C=C12)NC(=O)[C@H](CC(C)C)CC(=O)NO,108,102,113,111,120,124,123,88.3,78.6,25.4,25.6,99.5,109,89.2,102,113,103,97,97.3,97.4,11.9,14.1,114,124,112,111,120,113,109,113,112,21.1,22.5
CC/1=C(/N2[C@H](SC1)[C@H](NC(=O)C(N)C3=CC=CC=C3)C2=O)C(O)=O (stereo partly specified),106,118,118,137,135,136,145,152,137,106,141,–,–,–,–,–,–,–,–,–,–,–,109,135,123,148,145,132,149,137,154,146,130
CN1CCN(C(=O)O[C@H]2c3nccnc3C(=O)N2c2ccc(Cl)cn2)CC1,115,102,119,114,114,112,114,101,91.1,98.4,88.1,94.8,99.2,92.4,106,103,99.4,99.4,97.9,99.3,93.8,84.6,97.6,107,103,94.2,99.1,97,105,97.2,97,88.5,78.5
C[C@H]1COC/2=C1/C(=O)C(=O)C3=C4CCCC(C)(C)C4=CC=C23,114,131,121,116,154,146,137,163,158,132,134,–,–,–,–,–,–,–,–,–,–,–,123,129,120,136,135,129,148,156,141,134,151
O=C1NC(=O)/C(=C/c2ccc(-c3ccc(F)cc3O)o2)S1,106,126,125,130,127,114,125,91.8,103,82.7,72.9,113,108,104,114,112,105,103,94.7,95.7,92.7,84.9,112,117,114,103,113,116,91.6,93.9,91.7,75.8,66.9
Cc1nc(Nc2n[nH]c3c2CN(C(=O)N[C@H](CN(C)C)c2ccccc2)C3(C)C)c2sccc2n1,89.4,82.7,70.7,74.1,65.7,53.8,54.3,40.2,41.2,23.1,2.58,82.6,85,91.1,82.6,71.8,54.2,53.2,40.5,38.7,25.6,2.97,80.3,86.9,78.3,72.6,55.8,58,60.1,38.9,40.9,31,2.28
CC(C)(O)c1cc2nc(-c3cnc(N)nc3)nc(N3CCOCC3)c2s1,–,–,–,–,–,–,–,–,–,–,–,123,121,107,121,110,104,104,88.7,76.6,63.1,67.5,121,125,114,105,98.2,85.8,83.3,60.8,53.4,46.8,51.8
COc1cc(CNC(=O)CCCC/C=C/C(C)C)ccc1O,111,116,113,123,114,112,71.5,77,79.1,60.9,47.2,101,99.6,95,115,104,114,90.6,45.9,36.6,41.1,36.4,102,97.8,103,98.5,106,101,99.5,55.3,52,50.4,59.7
